Our source for the Ki and IC50 values is ChEMBL document CHEMBL3638431, “2-PYRIDYLOXY-4-NITRILE OREXIN RECEPTOR ANTAGONISTS” (2013).

In assay [1] the target is T1, Orexin/Hypocretin receptor type 1 (Homo sapiens, UniProt O43613).
T1 sequence (O43613 whole entry): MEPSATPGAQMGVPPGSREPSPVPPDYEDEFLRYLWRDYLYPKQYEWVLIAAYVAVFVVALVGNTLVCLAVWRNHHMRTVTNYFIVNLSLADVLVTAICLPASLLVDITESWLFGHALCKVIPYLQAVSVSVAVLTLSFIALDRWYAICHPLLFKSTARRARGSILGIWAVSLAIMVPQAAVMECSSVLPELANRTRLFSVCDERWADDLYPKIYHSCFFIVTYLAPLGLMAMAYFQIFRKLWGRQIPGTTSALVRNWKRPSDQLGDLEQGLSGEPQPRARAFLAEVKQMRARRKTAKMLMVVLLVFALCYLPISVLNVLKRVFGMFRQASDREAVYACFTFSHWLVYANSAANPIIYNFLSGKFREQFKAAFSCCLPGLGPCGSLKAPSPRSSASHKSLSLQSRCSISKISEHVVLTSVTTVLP
In words: (§1) Radioligand Binding Assay: The inhibition constant (Ki) is determined using a radioligand binding assay (described in Bergman et. al. Bioorg. Med. Chem. Lett. 2008, 18, 1425-1430).

For another assay, the target named is T2, Orexin receptor type 2 (Homo sapiens, UniProt O43614).
T2 sequence (O43614 whole entry): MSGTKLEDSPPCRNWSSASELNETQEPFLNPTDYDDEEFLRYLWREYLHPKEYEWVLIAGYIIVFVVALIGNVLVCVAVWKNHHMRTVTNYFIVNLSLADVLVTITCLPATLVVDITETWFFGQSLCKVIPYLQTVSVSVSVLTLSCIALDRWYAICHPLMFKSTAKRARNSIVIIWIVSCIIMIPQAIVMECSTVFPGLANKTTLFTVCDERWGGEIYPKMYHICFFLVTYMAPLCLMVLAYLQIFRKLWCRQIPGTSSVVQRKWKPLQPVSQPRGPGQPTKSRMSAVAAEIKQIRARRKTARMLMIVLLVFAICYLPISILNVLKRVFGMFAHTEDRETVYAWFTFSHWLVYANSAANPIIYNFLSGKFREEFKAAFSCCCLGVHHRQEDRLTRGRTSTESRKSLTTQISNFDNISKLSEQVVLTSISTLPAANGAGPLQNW
Described as §1.

The target in assay [2] is T3, Orexin/Hypocretin receptor type 1 (Rattus norvegicus, UniProt P56718).
T3 sequence (P56718 whole entry): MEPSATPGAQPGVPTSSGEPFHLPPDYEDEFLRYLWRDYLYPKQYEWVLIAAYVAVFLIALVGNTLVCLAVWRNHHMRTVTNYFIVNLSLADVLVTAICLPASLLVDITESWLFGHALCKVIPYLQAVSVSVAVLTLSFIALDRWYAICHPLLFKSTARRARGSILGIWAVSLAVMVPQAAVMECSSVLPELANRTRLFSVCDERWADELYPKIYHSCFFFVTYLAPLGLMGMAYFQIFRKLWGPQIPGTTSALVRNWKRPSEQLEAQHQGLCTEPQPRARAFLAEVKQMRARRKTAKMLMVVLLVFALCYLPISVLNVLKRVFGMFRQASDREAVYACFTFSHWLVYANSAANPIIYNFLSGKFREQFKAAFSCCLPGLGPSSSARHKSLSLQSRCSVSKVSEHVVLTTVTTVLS
The assay can be described thus: FLIPR Ca2+ Flux Assay: Chinese hamster ovary (CHO) cells expressing the rat orexin-1 receptor or the human orexin-2 receptor, are grown in Iscove's modified DMEM containing 2 mM L-glutamine, […], 1% hypoxanthine-thymidine supplement, 100 U/ml penicillin, 100 ug/ml streptomycin and 10% heat-inactivated fetal calf serum (FCS). The cells are seeded at 20,000 cells/well into Becton-Dickinson black 384-well clear bottom sterile plates coated with poly-D-lysine. All reagents were from GIBCO-Invitrogen Corp. The seeded plates are incubated overnight at 37° C. and 5% CO2. Ala-6,12 human orexin-A as the agonist is prepared as a 1 mM stock solution in 1% bovine serum albumin (BSA) and diluted in assay buffer (HBSS containing 20 mM HEPES, 0.1% BSA and 2.5 mM probenecid, pH7.4) for use in the assay at a final concentration of 70 pM. Test compounds are prepared as 10 mM stock solution in DMSO, then diluted in 384-well plates, first in DMSO, then assay buffer. On the day of the assay, cells are washed 3 times with 100 ul assay buffer and then incubated for 60 min (37° C., 5% CO2) in 60 ul assay buffer containing 1 uM Fluo-4AM ester, 0.02% pluronic acid, and 1% BSA. The dye loading solution is then aspirated and cells are washed 3 times with 100 ul assay buffer. 30 ul of that same buffer is left in each well. Within the Fluorescent Imaging Plate Reader (FLIPR, Molecular Devices), test compounds are added to the plate in a volume of 25 ul, incubated for 5 min and finally 25 ul of agonist is added. Fluorescence is measured for each well at 1 second intervals for 5 minutes and the height of each fluorescence peak is compared to the height of the fluorescence peak induced by 70 pM Ala-6,12 orexin-A with buffer in place of antagonist. In kind it is functional. (Calcium assays in cells follow changes in intracellular calcium, usually with a dye or a luminescent sensor.)

Molecules are shown by their SMILES.

As a reminder, the Ki is a dissociation constant, usually derived from enzyme kinetics or from competition with a known ligand. A high value points to a looser hold on the target. As a reminder, the IC50 is the concentration at which inhibition is half-maximal.

For `C[C@@H]1CC[C@@H](Oc2cc(C#N)ccn2)CN1C(=O)c1ccccc1-n1nccn1`, the Ki in assay [1] is 813 nM; on Orexin receptor type 2 it was 1.6 nM. The IC50 in assay [2] is 3650 nM.

In the case of `Cc1nc(-c2ccccc2C(=O)N2C[C@H](Oc3cc(C#N)ccn3)CC[C@H]2C)no1`, the Ki in assay [1] worked out at 1660 nM; on Orexin receptor type 2, 4.5 nM. Besides, in assay [2], the IC50 was above 10000 nM.

Turning to `C[C@@H]1CC[C@@H](Oc2cc(C#N)ccn2)CN1C(=O)c1ccccc1-c1ncccn1`, the values for the Ki (in assay [1]; on Orexin receptor type 2) were 761 nM and 1.3 nM, respectively. In assay [2], the IC50 came out at 4870 nM.

As to `C[C@@H]1CC[C@@H](Oc2cc(C#N)ccn2)CN1C(=O)c1ccc(C#N)cc1-n1nccn1`, the Ki in assay [1] was 34500 nM; at Orexin receptor type 2 it was 1360 nM.
